Test results as given in PMC10183817, “Inhibition of ATP synthase reverse activity restores energy homeostasis in mitochondrial pathologies” (The EMBO Journal, 2023).

Tests used:
[1] = biological target: T1, mitochondrial ATP synthase (F1F0ATPase, Complex V, CV) (Mus musculus, UniProt P56480+Q03265); test: HyFS: acidification rate (Seahorse XF96), frozen heart mitochondria; assay type: biochemical; details: EPI 100 nM; ATP 20 mM; pH 7.2; MAS buffer; partial inhibition, ATP synthesis not impaired
T1 construct: gene Atp5f1a; native fully assembled complex in isolated mouse heart mitochondria (frozen/thawed, or separated by blue native gel); with ATP synthase F(1) complex subunit gamma, mitochondrial; ATP synthase F(1) complex subunit delta, mitochondrial; ATP synthase F(1) complex subunit epsilon, mitochondrial; ATP synthase peripheral stalk subunit OSCP, mitochondrial; ATP synthase peripheral stalk subunit b, mitochondrial; ATP synthase peripheral stalk subunit d, mitochondrial; ATP synthase peripheral stalk subunit F6, mitochondrial; ATP synthase F(0) complex subunit a; ATP synthase F(0) complex subunit 8; ATP synthase F(0) complex subunit C1, mitochondrial

[2] = biological target: T2, purified bovine CV (Complex V, F-type ATP synthase) (Bos taurus, UniProt P00829+P19483); test: in-gel ATP hydrolysis, blue native gel, purified CV; assay type: biochemical; details: monomer, tetramer and oligomers, also F1 subcomplex; independent of the ATPIF1 amount
T2 construct: gene ATP5F1A; native purification from bovine heart; monomer (LMNG), tetramer (GDN) and oligomer preparations; with ATP synthase F(1) complex subunit gamma, mitochondrial; ATP synthase F(1) complex subunit delta, mitochondrial; ATP synthase F(1) complex subunit epsilon, mitochondrial; ATP synthase peripheral stalk subunit OSCP, mitochondrial; ATP synthase peripheral stalk subunit b, mitochondrial; ATP synthase peripheral stalk subunit d, mitochondrial; ATP synthase peripheral stalk subunit F6, mitochondrial; ATP synthase F(0) complex subunit a; ATP synthase F(0) complex subunit 8; ATP synthase F(0) complex subunit C1, mitochondrial

[3] = biological target: T2, purified bovine CV (Complex V, F-type ATP synthase); test: competition with ATPIF1-GFP for CV tetramer, blue native gel fluorescence; details: indirect binding read-out; prevents ATPIF1-GFP binding, does not displace bound ATPIF1; room temperature
[4] = biological target: T1, mitochondrial ATP synthase (F1F0ATPase, Complex V, CV); test: acidification rate (Seahorse XF96), isolated heart mitochondria; assay type: biochemical; details: ATP 20 mM; pH 7.2; oligomycin-sensitive

| SMILES | % inhibition [1] | in-gel ATP hydrolysis, blue native gel, purified CV [2] | competition with ATPIF1-GFP for CV tetramer, blue native gel fluorescence [3] | acidification rate (Seahorse XF96), isolated heart mitochondria [4] |
| --- | --- | --- | --- | --- |
| Oc1cc(O)c2c(c1)O[C@@H](c1ccc(O)c(O)c1)[C@@H](O)C2 [EPI, (+)-Epicatechin] | ~ 30% | We found that EPI inhibited ATP hydrolysis independently of the amount of ATPIF1 | In both purified tetramers and isolated mitochondria, EPI prevented the binding of ATPIF1‐GFP | – |
| Nc1ncnc2c1ncn2[C@@H]1O[C@H](COP(=O)(O)OP(=O)(O)OP(=O)(O)O)[C@@H](O)[C@H]1O [ATP] | – | – | – | addition of ATP resulted in a sharp increase in proton release that was oligomycin sensitive |
